Source: patent US20110313156A1 (BOEHRINGER INGELHEIM INTERNATIONAL GMBH, priority 2008, published 2011)

These molecules were tested against T1, His6-PDK1 (aa 52-556) (Homo sapiens, UniProt O15530) (assay: PDK1 kinase assay III (with Tween 20)). Conditions: compound at 10 μM; PDK1 kinase assay III (values without asterisk); read-out: % CTL (residual activity of the enzyme relative to DMSO control).
T1 construct: 15 μL His6-PDK1 (aa 52-556) 3.33 ng/well); host or cells: baculovirus-infected insect cells
T1 sequence (O15530 52-556): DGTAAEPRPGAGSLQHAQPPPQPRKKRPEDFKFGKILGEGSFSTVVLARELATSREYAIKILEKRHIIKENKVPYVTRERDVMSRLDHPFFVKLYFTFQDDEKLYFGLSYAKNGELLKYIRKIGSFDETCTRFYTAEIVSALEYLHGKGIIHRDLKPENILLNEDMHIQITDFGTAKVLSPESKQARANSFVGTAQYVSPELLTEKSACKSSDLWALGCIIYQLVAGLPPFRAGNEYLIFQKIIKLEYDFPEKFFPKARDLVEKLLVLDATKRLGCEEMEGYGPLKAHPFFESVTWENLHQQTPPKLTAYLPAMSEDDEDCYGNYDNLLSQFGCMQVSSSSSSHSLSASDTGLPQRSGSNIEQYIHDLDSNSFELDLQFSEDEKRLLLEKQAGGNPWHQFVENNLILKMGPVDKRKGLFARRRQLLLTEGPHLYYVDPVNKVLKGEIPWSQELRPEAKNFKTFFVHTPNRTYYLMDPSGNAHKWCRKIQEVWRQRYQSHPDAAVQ
Assay type: biochemical
Protocol: Purified enzyme may be obtained for example from the University of Dundee, Scotland.
Another PDK1 assay was developed which by comparison with PDK1 assay 1 additionally contains Tween 20:
The final concentration of Tween 20 is 0.005%.
The reaction is started by adding the ATP solution and the mixture is incubated for 90 min at ambient temperature; at the start of the reaction the dishes are shaken gently. The reaction is stopped by the addition of 50 μL/well of 500 mM phosphoric acid (H3PO4) and incubated for about 20 min at ambient temperature. […] The measured data are evaluated using Graphpad Prism software.
The % CTL values indicate the residual activity of the enzyme after the addition of the inhibitory compound in the solvent DMSO in relation to the enzyme activity in the solvent DMSO without the addition of a compound (control). The majority of the values were determined using the PDK1 kinase assay III described hereinbefore. The values marked with an asterisk (* or**) were determined using the PDK1 kinase assay II described hereinbefore (one asterisk→incubation for 24 h; two asterisks→incubation for 5 min)

| remaining activity at 10 µM [%] | Structure (SMILES) |
| --- | --- |
| 12.2 | COCCN(C)C(=O)c1ccc(Nc2ncc3cc(C#CCNC(=O)c4cncn(Cc5ccc(F)c(F)c5)c4=O)ccc3n2)cc1 |
| 16.1 | Cc1c(C(=O)NCC#Cc2ccc3nc(Nc4ccc(C(=O)NC5CCN(C)CC5)c(Cl)c4)ncc3c2)c(=O)n(Cc2ccc(F)c(F)c2)n1C |
| 11.6 | Cc1c(C(=O)NCC#Cc2ccc3nc(Nc4ccc(C(=O)NC5CCN(C)CC5)cc4)ncc3c2)c(=O)n(Cc2ccc(F)c(F)c2)n1C |
| 14.3 | Cc1c(C(=O)NCC#Cc2ccc3nc(Nc4ccc(N(C)C)cc4)ncc3c2)c(=O)n(Cc2ccc(F)c(F)c2)n1C |
| 14.7 | COc1ccc(Nc2ncc3cc(C#CCNC(=O)c4c(C)n(C)n(Cc5ccc(F)c(F)c5)c4=O)ccc3n2)cc1 |
| 12.4 | Cc1c(C(=O)NCC#Cc2ccc3nc(Nc4ccc(C(=O)N(C)C5CCN(C)CC5)cc4)ncc3c2)c(=O)n(Cc2ccc(F)c(F)c2)n1C |
| 15 | COc1cc(Nc2ncc3cc(C#CCNC(=O)c4c(C)n(C)n(Cc5ccc(F)c(F)c5)c4=O)ccc3n2)ccc1C(=O)NC1CCN(C)CC1 |
| 11 | Cc1c(C(=O)NCC#Cc2ccc3nc(Nc4ccc(C(=O)NC5CCN(C)CC5)c(F)c4)ncc3c2)c(=O)n(Cc2ccc(F)c(F)c2)n1C |
| 13.7 | CCN1CCC(NC(=O)c2ccc(Nc3ncc4cc(C#CCNC(=O)c5c(C)n(C)n(Cc6ccc(F)c(F)c6)c5=O)ccc4n3)cc2)CC1 |
| 11.6 | Cc1c(C(=O)NCC#Cc2ccc3nc(Nc4ccc(C(=O)NC5CCN(C6CC6)CC5)cc4)ncc3c2)c(=O)n(Cc2ccc(F)c(F)c2)n1C |
| 17.2 | COCCN(C)C(=O)c1ccc(Nc2ncc3cc(C#CCNC(=O)c4c(C)n(C)n(Cc5ccc(F)c(F)c5)c4=O)ccc3n2)cc1 |
| 20.1 | COCCNC(=O)c1ccc(Nc2ncc3cc(C#CCNC(=O)c4c(C)n(C)n(Cc5ccc(F)c(F)c5)c4=O)ccc3n2)cc1 |
| 12.4 | Cc1c(C#CCNC(=O)c2c(C)n(C)n(Cc3ccc(F)c(F)c3)c2=O)ccc2nc(Nc3ccccc3)ncc12 |
| 17.1 | Cc1c(C(=O)NCC#Cc2ccc3nc(Nc4ccccc4F)ncc3c2)c(=O)n(Cc2ccc(F)c(F)c2)n1C |
| 24.4 | Cc1c(C(=O)NCC#Cc2ccc3nc(NC(C)C)ncc3c2)c(=O)n(Cc2ccc(F)c(F)c2)n1C |
| 25 | Cc1c(C(=O)NCC#Cc2ccc3nc(NC4CCOCC4)ncc3c2)c(=O)n(Cc2ccc(F)c(F)c2)n1C |
| 12.3 | Cc1c(C(=O)NCC#Cc2ccc3nc(NC4CCC4)ncc3c2)c(=O)n(Cc2ccc(F)c(F)c2)n1C |
| 17.6 | CCNc1ncc2cc(C#CCNC(=O)c3cncn(Cc4ccc(F)c(F)c4)c3=O)ccc2n1 |
| 14.9 | CNc1ncc2cc(C#CCNC(=O)c3c(C)n(C)n(Cc4ccc(F)c(F)c4)c3=O)ccc2n1 |

| remaining activity at 10 µM [%] | Structure (SMILES) |
| --- | --- |
| 20.8 | Cc1c(C(=O)NCC#Cc2ccc3nc(Nc4ccc(C(=O)NC5CCC(C)CC5)cc4)ncc3c2)c(=O)n(Cc2ccc(F)c(F)c2)n1C (stereo not drawn) |
| 10.8 | Cc1c(C(=O)NCC#Cc2ccc3nc(Nc4ccc(C(=O)NCCN(C)C)cc4)ncc3c2)c(=O)n(Cc2ccc(F)c(F)c2)n1C |
| 13.1 | Cc1c(C(=O)NCC#Cc2ccc3nc(Nc4ccc(C(=O)NCCCN(C)C)cc4)ncc3c2)c(=O)n(Cc2ccc(F)c(F)c2)n1C |
| 14.4 | Cc1c(C(=O)NCC#Cc2ccc3nc(Nc4ccc(C(=O)N(C)CCO)cc4)ncc3c2)c(=O)n(Cc2ccc(F)c(F)c2)n1C |
| 12.1 | COCCCNC(=O)c1ccc(Nc2ncc3cc(C#CCNC(=O)c4c(C)n(C)n(Cc5ccc(F)c(F)c5)c4=O)ccc3n2)cc1 |
| 15.2 | Cc1c(C(=O)NCC#Cc2ccc3nc(Nc4ccc(C(=O)NCCCO)cc4)ncc3c2)c(=O)n(Cc2ccc(F)c(F)c2)n1C |
| 16 | COCCCN(C)C(=O)c1ccc(Nc2ncc3cc(C#CCNC(=O)c4c(C)n(C)n(Cc5ccc(F)c(F)c5)c4=O)ccc3n2)cc1 |
| 23.2 | Cc1c(C(=O)NCC#Cc2ccc3nc(Nc4ccc(C(=O)N(C)CCCO)cc4)ncc3c2)c(=O)n(Cc2ccc(F)c(F)c2)n1C |
| 19.7 | CC1CCC(NC(=O)c2ccc(Nc3ncc4cc(C#CCNC(=O)c5cncn(Cc6ccc(F)c(F)c6)c5=O)ccc4n3)cc2)CC1 (stereo not drawn) |
| 18.5 | CN(C)CCNC(=O)c1ccc(Nc2ncc3cc(C#CCNC(=O)c4cncn(Cc5ccc(F)c(F)c5)c4=O)ccc3n2)cc1 |
| 18.3 | CN(C)CCCNC(=O)c1ccc(Nc2ncc3cc(C#CCNC(=O)c4cncn(Cc5ccc(F)c(F)c5)c4=O)ccc3n2)cc1 |
| 23.5 | CCNc1ncc2cc(/C=C/CNC(=O)c3cncn(Cc4ccc(F)c(F)c4)c3=O)ccc2n1 |
| 17 | O=C(NC/C=C/c1ccc2nc(NC3CC3)ncc2c1)c1cncn(Cc2ccc(F)c(F)c2)c1=O |
| 13.8 | COc1ccc(Nc2ncc3cc(/C=C/CNC(=O)c4cncn(Cc5ccc(F)c(F)c5)c4=O)ccc3n2)cc1 |
| 22.5 | COC(=O)c1ccc(Nc2ncc3cc(/C=C/CNC(=O)c4cncn(Cc5ccc(F)c(F)c5)c4=O)ccc3n2)cc1Cl |
| 23 | Cc1c(C(=O)NC/C=C/c2ccc3nc(N)ncc3c2)c(=O)n(Cc2ccc(F)c(F)c2)n1C |
| 21.7 | CNc1ncc2cc(/C=C/CNC(=O)c3cncn(Cc4ccc(F)c(F)c4)c3=O)ccc2n1 |
| 16.9 | Cc1c(C(=O)NC/C=C/c2ccc3nc(Nc4ccc(C(=O)NCCCN(C)C)cc4)ncc3c2)c(=O)n(Cc2ccc(F)c(F)c2)n1C |
| 13.8 | Cc1ncc(C(=O)NC/C=C/c2ccc3nc(Nc4ccc(CN(C)C)cc4)ncc3c2)c(=O)n1Cc1ccc(F)c(F)c1 |

| remaining activity at 10 µM [%] | Structure (SMILES) |
| --- | --- |
| 20.7 | COC(=O)c1ccc(Nc2ncc3cc(/C=C/CNC(=O)c4c(C)n(C)n(Cc5ccc(F)c(F)c5)c4=O)ccc3n2)cc1 |
| 13.7 | Cc1c(C(=O)NC/C=C/c2ccc3nc(Nc4ccc(C(=O)N(C)C5CCN(C)CC5)c(F)c4)ncc3c2)c(=O)n(Cc2ccc(F)c(F)c2)n1C |
| 18.1 | Cc1c(C(=O)NC/C=C/c2ccc3nc(Nc4ccc(C(=O)NC5CCN(C)CC5)c(F)c4)ncc3c2)c(=O)n(Cc2ccc(F)c(F)c2)n1C |
| 29 | COc1cc(Nc2ncc3cc(/C=C/CNC(=O)c4cncn(Cc5ccc(F)c(F)c5)c4=O)ccc3n2)ccc1C(=O)NC1CCN(C)CC1 |
| 10.2 | COc1cc(Nc2ncc3cc(/C=C/CNC(=O)c4c(C)n(C)n(Cc5ccc(F)c(F)c5)c4=O)ccc3n2)ccc1C(=O)NC1CCN(C)CC1 |
| 22.4 | CN1CCC(NC(=O)c2ccc(Nc3ncc4cc(/C=C/CNC(=O)c5cncn(Cc6ccc(F)c(F)c6)c5=O)ccc4n3)cc2Cl)CC1 |
| 14.4 | Cc1c(C(=O)NC/C=C/c2ccc3nc(Nc4ccc(C(=O)NC5CCN(C)CC5)c(Cl)c4)ncc3c2)c(=O)n(Cc2ccc(F)c(F)c2)n1C |
| 19.7 | CN1CCC(NC(=O)c2ccc(Nc3ncc4cc(/C=C/CNC(=O)c5cncn(Cc6ccc(F)c(F)c6)c5=O)ccc4n3)cc2F)CC1 |
| 14.1 | CNC(=O)c1ccc(Nc2ncc3cc(/C=C/CNC(=O)c4cncn(Cc5ccc(F)c(F)c5)c4=O)ccc3n2)cc1Cl |
| 18.6 | CNC(=O)c1ccc(Nc2ncc3cc(/C=C/CNC(=O)c4c(C)n(C)n(Cc5ccc(F)c(F)c5)c4=O)ccc3n2)cc1Cl |
| 15.8 | Cc1c(C(=O)NC/C=C/c2ccc3nc(Nc4ccc(C(=O)N(C)C5CCN(C)CC5)c(Cl)c4)ncc3c2)c(=O)n(Cc2ccc(F)c(F)c2)n1C |
| 16.1 | CNc1ncc2cc(/C=C/CNC(=O)c3c(C)n(C)n(Cc4ccc(F)c(F)c4)c3=O)ccc2n1 |
| 18.4 | O=C(NC/C=C/c1ccc2nc(Nc3ccccn3)ncc2c1)c1cncn(Cc2ccc(F)c(F)c2)c1=O |
| 22.7 | Cc1c(C(=O)NC/C=C/c2ccc3nc(Nc4ccccn4)ncc3c2)c(=O)n(Cc2ccc(F)c(F)c2)n1C |
| 12.1 | O=C(NC/C=C/c1ccc2nc(Nc3ccncc3)ncc2c1)c1cncn(Cc2ccc(F)c(F)c2)c1=O |
| 38.2 | COC(=O)c1ccc(Nc2ncc3cc(/C=C/CNC(=O)c4cncn(Cc5ccc(F)c(F)c5)c4=O)ccc3n2)cc1OC |
| 13.6 | COC(=O)c1ccc(Nc2ncc3cc(/C=C/CNC(=O)c4c(C)n(C)n(Cc5ccc(F)c(F)c5)c4=O)ccc3n2)cc1OC |
| 12.9 | Cc1c(C(=O)NC/C=C/c2ccc3nc(Nc4ccc(C(=O)O)cc4)ncc3c2)c(=O)n(Cc2ccc(F)c(F)c2)n1C |
| 12.6 | CN1CCC(N(C)c2ccc(Nc3ncc4cc(/C=C/CNC(=O)c5nc(Cl)cn(Cc6ccc(F)c(F)c6)c5=O)ccc4n3)cc2)CC1 |
